Measurements: patent US20130316958A1 (University of Southern California, priority 2010, published 2013)

Legend:
[1] = system: HCT116, HaCat, and MEF cells; experiment: GFP-LC3 autophagy with KSHV vFLIP in multiple cell types; format: cell-based; conditions: 2 μM rapamycin 3 hr
Method: During autophagy, an LC3 precursor (LC3-I) undergoes cleavage and lipidation to yield its processed form (LC3-II) (Mizushima et al. (2008) Nature 451:1069-1075). Immunoblotting was performed with an antibody against LC3 to further measure autophagic activity. NIH3T3-Vector, NIH3T3-KSHV-vFLIP, and NIH3T3-MCV-159L cells were treated with Hank's solution for 4 hr. Polypeptides were resolved by SDS-polyacrylamide gel electrophoresis (PAGE) and transferred to a PVDF membrane (Bio-Rad). […] The proteins were visualized by a chemiluminescence reagent (Pierce) and detected by a Fuji Phosphor Imager. A large portion of LC3-I was processed to LC3-II in NIH3T3-vector cells under starvation conditions, while little or no processed LC3-II was detected in NIH3T3-KSHV-vFLIP, NIH3T3-MCV-159L, NIH3T3-HVS-vFLIP, and NIH3T3-cFLIPs cells. Finally, the ability of FLIP to block autophagy in multiple cell types was evaluated. At 12-16 hr post-transfection with GFP-LC3, HCT116, HaCat, and MEF cells containing vector or KSHV vFLIP were treated with 2 μM rapamycin for 3 hr. Subsequently, GFP-LC3 was detected using an inverted fluorescence microscope and the autophagy levels quantified as means (±SD) of the results from three independent experiments.

Atg3 = target: T1, Atg3 (Homo sapiens, UniProt Q9NT62); experiment: Co-immunoprecipitation of FLIP with Atg3 in HEK293T cells; format: binding; conditions: endogenously and exogenously expressed Atg3
T1 construct: GFP (alternative construct GFP-Atg3, not on the same molecule as GST); expressed in transfected cells; host or cells: HEK293T
T1 sequence (Q9NT62 whole entry): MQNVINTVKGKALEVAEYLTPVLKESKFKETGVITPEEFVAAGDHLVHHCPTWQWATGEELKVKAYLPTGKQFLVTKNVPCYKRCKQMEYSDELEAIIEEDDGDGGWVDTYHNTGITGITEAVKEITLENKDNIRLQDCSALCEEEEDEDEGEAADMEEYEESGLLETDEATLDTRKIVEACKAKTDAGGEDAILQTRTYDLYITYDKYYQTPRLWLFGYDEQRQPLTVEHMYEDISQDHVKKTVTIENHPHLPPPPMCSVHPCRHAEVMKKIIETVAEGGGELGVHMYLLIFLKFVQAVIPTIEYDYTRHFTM
Method: The ability of FLIP to bind to Atg3 was evaluated by co-immunoprecipitation assay. HEK293T cells were transfected with Flag-vFLIP and/or GFP-Atg3 or Flag-vFLIP and/or GST-Atg3, and at 48 hr post-transfection, cells were harvested and lysed in an NP40 buffer supplemented with complete protease inhibitor cocktail (Roche). After pre-clearing with protein A/G agarose beads for 1 hr at 4° C., whole-cell lysates were used for immunoprecipitation with αFlag, αGFP, or GST. Generally, 1-4 μg of the antibody was added to 1 ml of the cell lysate and incubated at 4° C. for 8 to 12 hr. The immunoprecipitates were then washed extensively with a lysis buffer and eluted by boiling them with an SDS loading buffer for 5 min. Following immunoprecipitation, samples were treated to immunoblot using αAtg3 (1:500) (Novus).

[2] = system: human Atg3 deletion mutants; experiment: GST pulldown with Atg3 deletion mutants; format: binding; conditions: GST-Atg3, N-terminal and C-terminal regions
From the text: The overall structure of yeast Atg3 has a unique hammer-like shape with the N-terminal and C-terminal regions discretely responsible for Atg7 and Atg8 (equivalent to mammalian LC3) binding, respectively. (Yamada et al. (2007) J. Biol. Chem. 282:8036-8043). Based on the structure of yeast Atg3, human Atg3 deletion mutants fused with a GST mammalian expression vector were constructed: GST-Atg31-93, GST-Atg3193-268, GST-Atg3268-315, and GST-Atg3193-315-GST-tagged hATG3 and hATG3 mutant genes were cloned into a pcDNA5/FRT/TO derivative encoding an N-terminal GST epitope tag between the BamHI and NotI sites. GST pulldown with Flag-KSHV vFLIP, Flag-cFLIPs, Flag-MCV 159L, or Flag-HVS vFLIP along with GST-Atg3, GST-Atg3 N-terminal region (Nt), or GST-Atg3 C-terminal region (Ct) was performed as described above and was followed by immunoblotting with aFlag or aGST.

Atg3-LC3 interaction = target: T2, Atg3-LC3 interaction (Homo sapiens, UniProt Q9NT62); experiment: Competition of vFLIP with LC3 for Atg3 binding (GST pulldown); conditions: increasing amount of Flag-vFLIP, HEK293T
T2 construct: expressed in transfected cells; host or cells: HEK293T
T2 sequence (Q9NT62 whole entry): as above
Method: Due to identical Atg3 binding patterns seen in vFLIP and LC3, the ability of vFLIP to directly compete with LC3 for Atg3 binding was tested. HEK293T cells were transfected with GST-Atg3 and GFP-LC3 along with increasing amount of Flag-vFLIP. At 48 hr post-transfection, GST pulldown was performed as described above, followed by immunoblotting with αGFP or αFlag.

“KSHV vFLIP: viral FLICE-like inhibitor protein of Kaposi's sarcoma-associated herpesvirus, expressed in cells” was tested, and the “block of autophagy in multiple cell types” value [1] was “efficiently blocked autophagy in a number of cell types”, the “interaction with Atg3 (co-immunoprecipitation)” value (Atg3) was “strongly interacted with endogenously and exogenously expressed Atg3, even in the presence of a 1M NaCl salt concentration” and the “Atg3 region bound (GST pulldown)” value [2] was “independently bound either the aa193-268 or aa268-315 region of the C-terminal of Atg3”. For the same substance, the “effect on Atg3-LC3 interaction” value (Atg3-LC3 interaction) was “marked decrease of Atg3-LC3 interaction”.
